The IC50 is the concentration at which inhibition is half-maximal. As a reminder, the inhibition is the share of the control response that was lost under treatment.

The source of these data is US10221144B2, “Antibacterial compounds having broad spectrum of activity” (priority 2014, dated 2019).

Structures can show the parent of a compound that is named as a salt. Where two headings read alike, the source gives them in different places.

Holding throughout (type): biochemical
Test [1] addresses T1, E. coli Topoisomerase IV (Escherichia coli, UniProt P0AFI2+P20083).
T1 construct: purchased Inspiralis, UK
In words: Topoisomerase IV decatenation assay (E. coli). The settings on record: for % inhibition Topo IV / inhibition at 200 µM / inhibition at 100 µM / inhibition at 50 µM: n/a = not active; for inhibition at 200 µM: conc. 200 μM; for inhibition at 200 µM / inhibition at 100 µM / inhibition at 50 µM: read-out: % inhibition Topo IV. On the procedure: (§1) The above compounds were tested for the inhibition of the enzyme DNA gyrase in a gyrase supercoiling assay and for the inhibition of the enzyme topoisomerase IV in a decatenation assay, in both Gram positive and Gram negative bacteria, according to the following methods.
(§2) Both the assays were carried out according to a set-up method modified from the article to Blanche F, et al. “Differential Behaviors of Staphylococcus aureus and Escherichia coli Type II DNA Topoisomerases”, Antimicrob. Agents Chemother., 1996, Vol. 40, No. 12 p. 2714-2720.
(§3) The compounds were screened at single concentration (200, 100 or 50 μM), in duplicate.
S. aureus and E. coli Topoisomerase IV decatenation kits (Inspiralis, UK) were used. A master mix with a total volume sufficient for the number of reactions to perform was prepared with the following reagents: 5× assay buffer (50 mM HEPES-KOH (pH 7.6), 100 mM potassium glutamate, 10 mM magnesium acetate, 10 mM DTT, 1 mM ATP, 50 μg/ml albumin), kDNA substrate (200 ng/reaction), RNase-DNase free water. Aliquots of this mix were dispensed in each tube, then 10× compound stock solutions or vehicle control (DMSO), were added in each reaction tube.
Reaction was started with Topoisomerase IV enzyme (0.5 U/reaction) addition.
(§4) A sample added with an equal volume of dilution buffer was used as negative control (without enzyme).
The reaction tubes were gentle vortexed and incubated 30 minutes at 37° C. Each reaction was stopped by adding 30 μl of Stop Buffer and 30 μl of chloroform/isoamyl alcohol (24/1), briefly vortexed for 5-10 seconds and centrifuged at 20000×g for 2 minutes. Samples taken from the upper phase were loaded into 1% agarose gel and subjected to electrophoresis for 1 hour at 80V constant voltage in TAE (40 mM Tris-acetate, 2 mM EDTA).
Data acquisition and analysis. Due to the high molecular mass, kDNA could not enter an agarose gel under normal electrophoresis conditions, but remained in the wells. In the presence of Topo IV topoisomerase mini-circles (2.5 Kb) were released from kDNA by decatenation and were quickly and easily resolved in the gel at relatively high voltages.
Bands were visualized by ethidium bromide staining (dil 1:20000) for 30 minutes followed by destaining in distilled water for 10 minutes.
For single concentration screening assay, in order to evaluate the compounds activity on the enzymes, the bands of decatenated DNAs in the gel were photographed by a digital imaging system ImageQuant LAS 4000 (GE Healthcare) according to manufacturer's instructions.
(§5) The fluorescent intensity of each band was analyzed by ImageQuant TL software and it was expressed as volume (volume of the uncalibrated quantity of material in the image feature after subtraction of the background intensity by using rolling ball method).
(§6) Each band intensity was compared, as percentage, to vehicle sample band intensity, which served as positive control, on the same gel.
(§7) Inhibitory activity was expressed as percent of inhibition versus the positive control.
(§8) The supercoiled or decatenated DNA bands obtained as described in Example 1 were analysed as follows.
(§9) Bands were analyzed by gel documentation equipment (Syngene, Cambridge, UK) and quantitated using Syngene Gene Tools software. Raw gel data (fluorescent band volumes) collected from Syngene, GeneTools gel analysis software were converted to a percentage of the 100% control (the fully supercoiled or decatenated DNA band). […] The IC50 data were calculated by using the global curve fit non-linear regression tool by selecting the Single, 2 Parameter fit function from the Exponential Decay equation category.

For test [2], the target named is T2, E. coli DNA gyrase (Escherichia coli, UniProt P0AES4+P0AES6).
T2 construct: purchased Inspiralis, UK
In words: DNA gyrase supercoiling assay (E. coli). The settings on record: for % inhibition DNA gyrase / inhibition at 200 µM / inhibition at 100 µM / inhibition at 50 µM: n/a = not active; for inhibition at 200 µM: conc. 200 μM. How it is done: as §1, §2, §3
(§10) Reagents from S. aureus and E. coli Gyrase Supercoiling Assay kits (Inspiralis, UK) were used. A master mix with a total volume sufficient for the number of reactions to perform was prepared with the following reagents: 5× assay buffer, relaxed pBR322 substrate (0.5 μg/reaction), RNase-DNase free water. Aliquotes of this mix were dispensed in each tube, then 10× compound stock solutions or vehicle control (DMSO), were added to each reaction tube.
(§11) Reaction was started with E. Coli (2 U/reaction) or S. aureus (1 U/reaction) gyrase enzyme addition.
as §4
(§12) The reaction tubes were gentle vortexed and incubated 30 minutes at 37° C. Each reaction was stopped by adding 30 μl of Stop Buffer and 30 μl chloroform/isoamyl alcohol (24/1), briefly vortexed for 5-10 seconds and centrifuged at 20000×g for 2 minutes. Samples were loaded onto 1% agarose gel and subjected to electrophoresis for 1 hour at 80V constant voltage in TAE (40 mM Tris-acetate, 2 mM EDTA).
(§13) Data acquisition and analysis. Treatment of relaxed pBR322 with DNA gyrase converted the relaxed topoisomers (DNAs of different linking number) to the supercoiled form of the plasmid, which migrates faster on an agarose gel. An upper band might also be visible, which consists of open-circular (nicked) DNA which is present in the relaxed substrate but co-migrates with some of the relaxed topoisomers.
(§14) Bands were visualized by ethidium bromide staining (dilution 1:20000) for 30 minutes followed by destaining in distilled water for 10 minutes.
(§15) In order to evaluate the compounds activity on the enzyme, the bands of supercoiled DNAs in the gel were photographed by a digital imaging system ImageQuant LAS 4000 (GE Healthcare) according to manufacturer's instructions.
as §5, §6, §7, §8, §9

The target of test [3] is T3, S. aureus DNA gyrase (Staphylococcus aureus, UniProt P0A0K8+P20831).
T3 construct: purchased Inspiralis, UK
The test is described as follows: DNA gyrase supercoiling assay (S. aureus). Conditions: for % inhibition DNA gyrase / inhibition at 200 µM / inhibition at 100 µM / inhibition at 50 µM: n/a = not active; for inhibition at 200 µM: conc. 200 μM. On the procedure: as §1, §2, §3, §10, §11, §4, §12, §13, §14, §15, §5, §6, §7, §8, §9

Setting [4] is: E. coli, concentration-response curve, eight half-log concentrations 0.1 to 300 μM, read-out: IC50 Topo IV.
Setting [5] is: E. coli, concentration-response curve, eight half-log concentrations 0.1 to 300 μM, read-out: IC50 DNA gyrase.
Where [6] appears, read: S. aureus, concentration-response curve, eight half-log concentrations 0.1 to 300 μM, read-out: IC50 DNA gyrase.

T3 sequence (P0A0K8 whole entry): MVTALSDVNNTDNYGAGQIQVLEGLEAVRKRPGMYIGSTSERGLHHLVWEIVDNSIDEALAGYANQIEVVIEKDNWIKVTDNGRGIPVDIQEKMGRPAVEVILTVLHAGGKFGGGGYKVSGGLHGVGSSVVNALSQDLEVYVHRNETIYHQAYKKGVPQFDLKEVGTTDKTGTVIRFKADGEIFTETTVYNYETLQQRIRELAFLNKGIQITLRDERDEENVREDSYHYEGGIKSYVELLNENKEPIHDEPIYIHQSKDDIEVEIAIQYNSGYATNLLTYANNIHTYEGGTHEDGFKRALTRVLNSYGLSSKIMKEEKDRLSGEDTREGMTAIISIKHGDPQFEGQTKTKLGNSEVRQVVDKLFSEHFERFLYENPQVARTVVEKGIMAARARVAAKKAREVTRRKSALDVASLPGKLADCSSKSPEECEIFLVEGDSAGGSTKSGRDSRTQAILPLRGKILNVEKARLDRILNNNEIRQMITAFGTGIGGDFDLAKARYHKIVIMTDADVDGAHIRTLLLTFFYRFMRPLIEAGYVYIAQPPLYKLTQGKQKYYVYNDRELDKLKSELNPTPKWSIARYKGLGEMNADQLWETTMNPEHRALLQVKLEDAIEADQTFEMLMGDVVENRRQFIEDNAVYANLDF
T3 sequence (P20831 whole entry): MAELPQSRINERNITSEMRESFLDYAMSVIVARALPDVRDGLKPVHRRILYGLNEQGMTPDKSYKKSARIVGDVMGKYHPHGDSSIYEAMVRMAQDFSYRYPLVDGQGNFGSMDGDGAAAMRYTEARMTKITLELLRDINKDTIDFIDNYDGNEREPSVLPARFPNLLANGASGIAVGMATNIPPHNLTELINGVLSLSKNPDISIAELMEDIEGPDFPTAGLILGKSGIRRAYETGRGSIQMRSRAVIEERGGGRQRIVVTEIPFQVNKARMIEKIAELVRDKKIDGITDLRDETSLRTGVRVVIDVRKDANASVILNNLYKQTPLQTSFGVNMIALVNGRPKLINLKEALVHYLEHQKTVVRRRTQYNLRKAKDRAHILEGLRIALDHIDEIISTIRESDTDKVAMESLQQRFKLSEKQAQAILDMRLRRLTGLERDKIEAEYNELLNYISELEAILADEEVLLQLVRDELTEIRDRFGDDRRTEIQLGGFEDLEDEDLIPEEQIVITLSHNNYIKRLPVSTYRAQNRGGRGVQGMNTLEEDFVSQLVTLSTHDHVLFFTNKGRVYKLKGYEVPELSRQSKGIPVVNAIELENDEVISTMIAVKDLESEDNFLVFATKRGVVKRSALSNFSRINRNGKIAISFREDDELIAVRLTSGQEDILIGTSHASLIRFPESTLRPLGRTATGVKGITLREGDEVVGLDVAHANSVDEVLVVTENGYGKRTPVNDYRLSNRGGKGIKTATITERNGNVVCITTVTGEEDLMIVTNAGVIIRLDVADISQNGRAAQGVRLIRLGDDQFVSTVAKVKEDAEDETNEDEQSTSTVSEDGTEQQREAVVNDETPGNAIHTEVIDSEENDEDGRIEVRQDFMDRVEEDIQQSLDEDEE
T2 sequence (P0AES4 whole entry, one chain of several): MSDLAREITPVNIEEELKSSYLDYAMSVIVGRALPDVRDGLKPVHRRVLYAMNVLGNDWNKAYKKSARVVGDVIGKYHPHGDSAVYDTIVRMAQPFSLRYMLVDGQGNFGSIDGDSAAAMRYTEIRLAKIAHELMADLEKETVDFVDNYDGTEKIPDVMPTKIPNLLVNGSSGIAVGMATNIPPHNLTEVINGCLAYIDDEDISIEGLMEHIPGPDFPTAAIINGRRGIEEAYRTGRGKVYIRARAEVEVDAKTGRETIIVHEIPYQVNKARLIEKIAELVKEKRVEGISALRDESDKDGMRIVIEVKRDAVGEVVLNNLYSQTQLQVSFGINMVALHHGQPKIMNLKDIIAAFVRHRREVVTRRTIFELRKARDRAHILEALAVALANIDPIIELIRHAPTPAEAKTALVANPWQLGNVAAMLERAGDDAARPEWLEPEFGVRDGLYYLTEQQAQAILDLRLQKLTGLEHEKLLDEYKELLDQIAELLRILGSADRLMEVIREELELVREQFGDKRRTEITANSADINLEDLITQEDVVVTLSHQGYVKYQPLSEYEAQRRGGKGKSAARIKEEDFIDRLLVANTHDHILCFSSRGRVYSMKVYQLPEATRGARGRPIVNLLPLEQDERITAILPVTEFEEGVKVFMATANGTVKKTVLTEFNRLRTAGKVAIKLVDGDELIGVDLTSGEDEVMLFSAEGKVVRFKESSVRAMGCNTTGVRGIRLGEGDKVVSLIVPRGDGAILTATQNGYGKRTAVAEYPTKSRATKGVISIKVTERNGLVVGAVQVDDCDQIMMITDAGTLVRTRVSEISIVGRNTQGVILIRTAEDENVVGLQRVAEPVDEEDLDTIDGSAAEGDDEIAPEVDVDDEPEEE
T1 sequence (P20083 whole entry): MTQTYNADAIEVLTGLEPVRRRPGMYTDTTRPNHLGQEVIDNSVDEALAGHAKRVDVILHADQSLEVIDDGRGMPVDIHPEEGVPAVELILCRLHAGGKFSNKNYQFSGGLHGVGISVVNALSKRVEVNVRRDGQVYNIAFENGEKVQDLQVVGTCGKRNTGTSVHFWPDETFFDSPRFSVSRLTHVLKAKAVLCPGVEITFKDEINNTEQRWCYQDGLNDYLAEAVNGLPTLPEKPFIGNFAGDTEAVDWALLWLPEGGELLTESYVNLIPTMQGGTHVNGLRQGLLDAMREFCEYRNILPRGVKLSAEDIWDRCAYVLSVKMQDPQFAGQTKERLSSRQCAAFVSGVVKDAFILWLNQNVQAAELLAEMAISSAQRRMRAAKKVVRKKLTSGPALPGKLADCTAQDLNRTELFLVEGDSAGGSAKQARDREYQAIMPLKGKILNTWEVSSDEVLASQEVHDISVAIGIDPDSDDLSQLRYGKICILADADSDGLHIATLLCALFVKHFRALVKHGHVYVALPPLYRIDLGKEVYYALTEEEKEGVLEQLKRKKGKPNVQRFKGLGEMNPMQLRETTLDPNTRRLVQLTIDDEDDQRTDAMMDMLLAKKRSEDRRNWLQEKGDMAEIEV
T1 sequence (P0AFI2 whole entry): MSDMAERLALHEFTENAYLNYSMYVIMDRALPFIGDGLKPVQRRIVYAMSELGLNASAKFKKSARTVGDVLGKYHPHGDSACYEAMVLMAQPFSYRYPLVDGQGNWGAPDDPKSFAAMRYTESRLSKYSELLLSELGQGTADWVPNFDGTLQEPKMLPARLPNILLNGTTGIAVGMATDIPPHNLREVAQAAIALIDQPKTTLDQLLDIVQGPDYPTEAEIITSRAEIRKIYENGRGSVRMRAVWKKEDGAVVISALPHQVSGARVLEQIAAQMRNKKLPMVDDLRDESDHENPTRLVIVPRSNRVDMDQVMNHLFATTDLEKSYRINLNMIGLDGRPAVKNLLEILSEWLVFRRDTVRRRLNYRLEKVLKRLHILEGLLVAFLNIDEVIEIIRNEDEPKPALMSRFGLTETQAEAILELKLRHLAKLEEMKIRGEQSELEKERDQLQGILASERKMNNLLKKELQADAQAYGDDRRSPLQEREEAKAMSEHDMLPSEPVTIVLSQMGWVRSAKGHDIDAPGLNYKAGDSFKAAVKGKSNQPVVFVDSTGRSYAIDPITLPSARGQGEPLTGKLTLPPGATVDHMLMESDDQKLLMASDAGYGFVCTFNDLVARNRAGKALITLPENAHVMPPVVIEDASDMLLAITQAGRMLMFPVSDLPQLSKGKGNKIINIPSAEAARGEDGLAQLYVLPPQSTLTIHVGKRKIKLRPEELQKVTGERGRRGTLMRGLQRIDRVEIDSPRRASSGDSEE

As to 1,3-dichloroisoquinoline [Compound 66], the “% inhibition Topo IV” value in test [1] (E. coli, conc. 100 μM) was 58%. Further, the IC50 in test [1] (setting [4]) was found to be 3.2 µM; in test [2] (setting [5]), 2.3 µM; in test [3] (setting [6]) it was 12.1 µM. Moreover, the “% inhibition DNA gyrase” value was determined as 100% in test [2] (E. coli, conc. 100 μM) and 87% in test [3] (S. aureus, conc. 100 μM).
Turning to 4-chloro-2H-chromen-2-one [Compound 63], in test [1] (E. coli, conc. 100 μM), the “% inhibition Topo IV” value came to 51%. Moreover, the “% inhibition DNA gyrase” value in test [2] (E. coli, conc. 100 μM) turned out to be 98%.
On to “5-chloro-1,6-naphthyridine [Compound 65]”, for which the “% inhibition Topo IV” value in test [1] (E. coli, conc. 100 μM) is on record as 80%. In addition, the values for the IC50 in test [1] (setting [4]), in test [2] (setting [5]) and in test [3] (setting [6]) were 29.3 µM, 40.6 µM and 26.8 µM, respectively. Moreover, the “% inhibition DNA gyrase” value in test [2] (E. coli, conc. 100 μM) amounted to 94%; in test [3] (S. aureus, conc. 100 μM) it was 80%.
Take `O=c1cc(NC2CCN(CCCc3cccc4ocnc34)CC2)c2ccccc2o1` [Compound 27, 4-({1-[3-(1,3-benzoxazol-4-yl)propyl]piperidin-4-yl}amino)-2H-chromen-2-one]: the inhibition at 200 µM in test [1] (E. coli) amounted to 53%; in test [2] (E. coli), 61%.
On to `O=c1cc(NC2CCN(CCCc3nccc4ccccc34)CC2)c2ccccc2o1` [Compound 29, 4-({1-[3-(isoquinolin-1-yl)propyl]piperidin-4-yl}amino)-2H-chromen-2-one], for which the figures for the IC50 in test [1], in test [2] and in test [3] were 10 µM, 6 µM and 20 µM, respectively. The figures for the inhibition at 200 µM in test [1] (E. coli), in test [2] (E. coli) and in test [3] (S. aureus) were 100%, 92% and 86%, respectively.
Turning to `O=C1Cc2cccc(CCCN3CCC(Nc4cc(=O)oc5ccccc45)CC3)c2N1` [Compound 40, 7-(3-{4-[(2-oxo-2H-chromen-4-yl)amino]piperidin-1-yl}propyl)-1,3-dihydro-2H-indol-2-one], the inhibition at 200 µM in test [1] (E. coli) is 78%; in test [2] (E. coli) it was 54%.
As for `c1ccc2c(N3CCN(CCCNCc4cc5c(cn4)OCS5)CC3)nccc2c1` [Compound 46, 3-[4-(isoquinolin-1-yl)piperazin-1-yl]-N-([1,3]oxathiolo-[5,4-c]pyridin-6-ylmethyl)propan-1-amine], the inhibition at 200 µM is 94% in test [1] (E. coli), 57% in test [2] (E. coli) and 100% in test [3] (S. aureus).
As for `O=c1cc(NCCCN2CCN(c3nccc4ccc(Cl)cc34)CC2)c2ccccc2o1` [Compound 51, 4-({3-[4-(7-chloroisoquinolin-1-yl)piperazin-1-yl]propyl}amino)-2H-chromen-2-one], the IC50 came out at 2.4 µM in test [1], 0.9 µM in test [2] and 4.5 µM in test [3]. Besides, the inhibition at 100 µM in test [1] (E. coli, conc. 100 μM) stood at 88%; in test [2] (E. coli, conc. 100 μM), 100%; in test [3] (S. aureus, conc. 100 μM), 91%.
Take `O=c1cc(N[C@H]2C[C@H](N3CCN(c4nccc5ccccc45)CC3)C2)c2ccccc2o1` [Compound 55, trans-4-({3-[4-(isoquinolin-1-yl)piperazin-1-yl]cyclobutyl}amino)-2H-chromen-2-one]: the IC50 in test [1] came to 2.6 µM; in test [2], 2.1 µM; in test [3] it was 5.6 µM. For the same compound, the inhibition at 100 µM in test [1] (E. coli, conc. 100 μM) came out at 95%; in test [2] (E. coli, conc. 100 μM), 94%; in test [3] (S. aureus, conc. 100 μM), 86%.
In the case of `O=c1cc(NCCCN2CCN(c3nccc4cccnc34)CC2)c2ccccc2o1` [Compound 61, 4-({3-[4-(1,7-naphthyridin-8-yl)piperazin-1-yl]propyl}amino)-2H-chromen-2-one], the IC50 was 20.2 µM in test [1], 3.3 µM in test [2] and 8.7 µM in test [3]. In addition, the inhibition at 100 µM stood at 92% in test [1] (E. coli, conc. 100 μM); 92% in test [2] (E. coli, conc. 100 μM); 88% in test [3] (S. aureus, conc. 100 μM).
On to `NC(=O)C1CN(c2nccc3ccccc23)CCN1CCCNc1cc(=O)oc2ccccc12` (stereo not shown) [Compound 89, 4-(isoquinolin-1-yl)-1-{3-[(2-oxo-2H-chromen-4-yl)amino]propyl}piperazine-2-carboxamide hydrochloride], for which the figures for the IC50 in test [1] and in test [2] were 54 µM and 28 µM, respectively. The inhibition at 50 µM amounted to 51% in test [1] (E. coli, conc. 50 μM) and 87% in test [2] (E. coli, conc. 50 μM).
Take `O=c1cc(NCCCN2CCN(c3nccc4ccccc34)CC2CO)c2ccccc2o1` (stereo not shown) [Compound 90, 4-({3-[2-(hydroxymethyl)-4-(isoquinolin-1-yl)piperazin-1-yl]-propyl}amino)-2H-chromen-2-one]: the IC50 in test [1] stood at 15.5 µM; in test [2], 8.3 µM; in test [3] it was 9.3 µM. In addition, the inhibition at 50 µM in test [1] (E. coli, conc. 50 μM) is 81%; in test [2] (E. coli, conc. 50 μM) it was 93%; in test [3] (S. aureus, conc. 50 μM), 89%.
Regarding `[O-][n+]1ccc2ccc(F)cc2c1Cl` [Compound 100, 1-chloro-7-fluoroisoquinolin-2-ium-2-olate], the “% inhibition Topo IV” value in test [1] (E. coli, conc. 50 μM) worked out at 76%. In addition, the values for the IC50 in test [1] (setting [4]), in test [2] (setting [5]) and in test [3] (setting [6]) were 10.2 µM, 4.5 µM and 4.7 µM, respectively. Besides, the “% inhibition DNA gyrase” value came to 95% in test [2] (E. coli, conc. 50 μM) and 91% in test [3] (S. aureus, conc. 50 μM).
Take `O=c1cc(NCCC[N+]2([O-])CCN(c3nccc4ccc(F)cc34)CC2)c2ccccc2o1` [Compound 105, 4-({3-[4-(7-fluoroisoquinolin-1-yl)-1-oxidopiperazin-1-yl]propyl}amino)-2H-chromen-2-one]: the IC50 in test [1] stood at 5.6 µM; in test [2], 11.4 µM; in test [3] it was 6.6 µM. Besides, the inhibition at 50 µM amounted to 66% in test [1] (E. coli, conc. 50 μM); 91% in test [2] (E. coli, conc. 50 μM); 100% in test [3] (S. aureus, conc. 50 μM).
Consider `O=c1cc(NCCCN2CCC(c3nccc4ccccc34)CC2)c2ccccc2o1` [Compound 109, 4-({3-[4-(isoquinolin-1-yl)piperidin-1-yl]propyl}amino)-2H-chromen-2-one], for which the IC50 in test [1] is 5.6 µM; in test [2] it was 5.1 µM; in test [3] it was 20.7 µM. Further, the inhibition at 50 µM in test [1] (E. coli, conc. 50 μM) was 72%; in test [2] (E. coli, conc. 50 μM), 100%; in test [3] (S. aureus, conc. 50 μM) it was 100%.
